Values after ≈ are worked out from the molar mass of the structure shown. “Also recorded” adds a separate entry of the source. Where two headings read alike, the source gives them in different places.
Tests used:
Solubility = format: physicochemical; conditions: base
[1] = system: Gram-positive and Gram-negative bacteria; assay: In vitro antibacterial activity (general); format: cell-based
Procedure: (§1) The minimum inhibitory concentrations (MIC) of Bu-2183 A and B were determined against a wide variety of bacteria by the two-fold agar dilution method on Nutrient Agar plates. The inocula-replicating device of Steers et al. was used. Inoculum size was adjusted to be 10^4 dilution of overnight culture of the test organisms in Heart Infusion Broth (Difco). The results are shown in Table 6 along with those of kanamycin which was comparatively tested as a reference antibiotic.

E. coli PO 1495 = assay: MIC, two-fold agar dilution on Nutrient Agar; format: cell-based; conditions: Escherichia coli, PO1495, read-out: MIC
Procedure: as §1

Ent. cloacae A21006 = assay: MIC, two-fold agar dilution on Nutrient Agar; format: cell-based; conditions: Enterobacter cloacae, A21006
Procedure: as §1

S. aureus D137 = assay: MIC, two-fold agar dilution on Nutrient Agar; format: cell-based; conditions: Staphylococcus aureus
Procedure: as §1

E. coli NIHJ = assay: MIC, two-fold agar dilution on Nutrient Agar; format: cell-based; conditions: Escherichia coli
Procedure: as §1

E. coli A20107 = assay: MIC, two-fold agar dilution on Nutrient Agar; format: cell-based; conditions: Escherichia coli
Procedure: as §1

Pr. mirabilis A9554 = assay: MIC, two-fold agar dilution on Nutrient Agar; format: cell-based; conditions: Proteus mirabilis
Procedure: as §1

S. aureus D133 = assay: MIC, two-fold agar dilution on Nutrient Agar; format: cell-based; conditions: Staphylococcus aureus
Procedure: as §1

S. aureus A20239 = assay: MIC, two-fold agar dilution on Nutrient Agar; format: cell-based; conditions: Staphylococcus aureus
Procedure: as §1

Pseudomonas sp. A20621 = assay: MIC, two-fold agar dilution on Nutrient Agar; format: cell-based; conditions: Pseudomonas, SP.A20621
Procedure: as §1

E. coli JR 66/W677 = assay: MIC, two-fold agar dilution on Nutrient Agar; format: cell-based; conditions: Escherichia coli
Procedure: as §1

S. aureus D193 = assay: MIC, two-fold agar dilution on Nutrient Agar; format: cell-based; conditions: Staphylococcus aureus, D193
Procedure: as §1

Pr. morganii A20031 = assay: MIC, two-fold agar dilution on Nutrient Agar; format: cell-based; conditions: Morganella morganii, A20031
Procedure: as §1

Prov. stuartii A20894 = assay: MIC, two-fold agar dilution on Nutrient Agar; format: cell-based; conditions: Providencia stuartii, A20894
Procedure: as §1

Ps. aeruginosa A20601 = assay: MIC, two-fold agar dilution on Nutrient Agar; format: cell-based; conditions: Pseudomonas aeruginosa
Procedure: as §1

E. coli JR 35/C600 = assay: MIC, two-fold agar dilution on Nutrient Agar; format: cell-based; conditions: Escherichia coli, JR35/C600
Procedure: as §1

Ps. aeruginosa A9930 = assay: MIC, two-fold agar dilution on Nutrient Agar; format: cell-based; conditions: Pseudomonas aeruginosa, A9930
Procedure: as §1

Pr. vulgaris A9436 = assay: MIC, two-fold agar dilution on Nutrient Agar; format: cell-based; conditions: Proteus vulgaris
Procedure: as §1

E. coli R 5 = assay: MIC, two-fold agar dilution on Nutrient Agar; format: cell-based; conditions: Escherichia coli
Procedure: as §1

Ps. aeruginosa A20653 = assay: MIC, two-fold agar dilution on Nutrient Agar; format: cell-based; conditions: Pseudomonas aeruginosa
Procedure: as §1

Ps. aeruginosa No. 130 = assay: MIC, two-fold agar dilution on Nutrient Agar; format: cell-based; conditions: Pseudomonas aeruginosa, NO.130
Procedure: as §1

Ps. aeruginosa GN 315 = assay: MIC, two-fold agar dilution on Nutrient Agar; format: cell-based; conditions: Pseudomonas aeruginosa, GN315
Procedure: as §1

E. coli ML 1630 = assay: MIC, two-fold agar dilution on Nutrient Agar; format: cell-based; conditions: Escherichia coli
Procedure: as §1

Ser. marcescens A21247 = assay: MIC, two-fold agar dilution on Nutrient Agar; format: cell-based; conditions: Serratia marcescens
Procedure: as §1

E. coli A20732 = assay: MIC, two-fold agar dilution on Nutrient Agar; format: cell-based; conditions: Escherichia coli, A20732
Procedure: as §1

Ser. marcescens A20019 = assay: MIC, two-fold agar dilution on Nutrient Agar; format: cell-based; conditions: Serratia marcescens, A20019
Procedure: as §1

Ent. cloacae A20364 = assay: MIC, two-fold agar dilution on Nutrient Agar; format: cell-based; conditions: Enterobacter cloacae, A20364
Procedure: as §1

E. coli NR 79/W677 = assay: MIC, two-fold agar dilution on Nutrient Agar; format: cell-based; conditions: Escherichia coli
Procedure: as §1

S. aureus Smith = assay: MIC, two-fold agar dilution on Nutrient Agar; format: cell-based; conditions: Staphylococcus aureus
Procedure: as §1

[2] = system: K. pneumoniae Type 22-3038; assay: MIC, two-fold agar dilution on Nutrient Agar; format: cell-based; conditions: Klebsiella pneumoniae, TYPE223038
Procedure: as §1

K. pneumoniae D11 = assay: MIC, two-fold agar dilution on Nutrient Agar; format: cell-based; conditions: Klebsiella pneumoniae
Procedure: as §1

Ps. aeruginosa A20896 = assay: MIC, two-fold agar dilution on Nutrient Agar; format: cell-based; conditions: Pseudomonas aeruginosa
Procedure: as §1

E. coli A20895 = assay: MIC, two-fold agar dilution on Nutrient Agar; format: cell-based; conditions: Escherichia coli
Procedure: as §1

Titration in water = format: physicochemical

CCCC(=O)NC1C(CO)OC(OC(C(O)CN)C(N)C(O)CO)C(O)C1O (stereo not drawn) [Bu-2183 A2]
solubility in methanol and ethanol (Solubility): slightly soluble | solubility in n-butanol, acetone and other common organic solvents (Solubility): practically insoluble | solubility in water (Solubility): soluble | bio-activity [1]: bio-active | activity of Bu-2183 A2 relative to Bu-2183 A and B ([1]; in vitro): more active than Bu-2183 B but less active than Bu-2183 A | antibacterial spectrum ([1]; in vitro): broad spectrum of antibacterial activity | MIC (E. coli PO 1495; Table 7, Ec-2): > 100 µg/mL | MIC (Ent. cloacae A21006; Table 7, El-12, read-out: MIC): 100 µg/mL (≈ 243 µM) | MIC (S. aureus D137; D137, Table 7, Sa-9, read-out: MIC): 100 µg/mL (≈ 243 µM) | MIC (E. coli NIHJ; Table 7, Ec-1, read-out: MIC): 100 µg/mL (≈ 243 µM) | MIC (E. coli A20107; A20107, Table 7, Ec-49, read-out: MIC): 50 µg/mL (≈ 122 µM) | MIC (Pr. mirabilis A9554; A9554, Table 7, Pm-1, read-out: MIC): 50 µg/mL (≈ 122 µM) | MIC (S. aureus D133; D133, Table 7, Sa-4, read-out: MIC): 100 µg/mL (≈ 243 µM) | MIC (S. aureus A20239; A20239, Table 7, Sa-10, read-out: MIC): 100 µg/mL (≈ 243 µM) | MIC (Pseudomonas sp. A20621; Table 7, Px-10, read-out: MIC): > 100 µg/mL | MIC (E. coli JR 66/W677; JR66/W677, Table 7, Ec-53): 25 µg/mL (≈ 60.8 µM) | MIC (S. aureus D193; Table 7, Sa-3, read-out: MIC): 50 µg/mL (≈ 122 µM) | MIC (Pr. morganii A20031; Table 7, Pg-2, read-out: MIC): 50 µg/mL (≈ 122 µM) | MIC (Prov. stuartii A20894; Table 7, Ps-2, read-out: MIC): > 100 µg/mL | MIC (Ps. aeruginosa A20601; A20601, Table 7, Pa-21, read-out: MIC): > 100 µg/mL | MIC (E. coli JR 35/C600): 6.3 µg/mL (≈ 15.3 µM) | MIC (Ps. aeruginosa A9930; Table 7, Pa-3, read-out: MIC): 50 µg/mL (≈ 122 µM) | MIC (Pr. vulgaris A9436; A9436, Table 7, Pv-1, read-out: MIC): 100 µg/mL (≈ 243 µM) | MIC (E. coli R 5; R5, Table 7, Ec-55): 25 µg/mL (≈ 60.8 µM) | MIC (Ps. aeruginosa A20653; A20653, Table 7, Pa-12, read-out: MIC): > 100 µg/mL | MIC (Ps. aeruginosa No. 130; Table 7, Pa-16, read-out: MIC): 100 µg/mL (≈ 243 µM) | MIC (Ps. aeruginosa GN 315; Table 7, Pa-27, read-out: MIC): 100 µg/mL (≈ 243 µM) | MIC (E. coli ML 1630; ML1630, Table 7, Ec-5, read-out: MIC): 50 µg/mL (≈ 122 µM) | MIC (Ser. marcescens A21247; A21247, Table 7, Sm-16, read-out: MIC): > 100 µg/mL | MIC (E. coli A20732; Table 7, Ec-72, read-out: MIC): 25 µg/mL (≈ 60.8 µM) | MIC (Ser. marcescens A20019; Table 7, Sm-1, read-out: MIC): > 100 µg/mL | MIC (Ent. cloacae A20364; Table 7, El-2, read-out: MIC): 100 µg/mL (≈ 243 µM) | MIC (E. coli NR 79/W677; NR79/W677, Table 7, Ec-9): 25 µg/mL (≈ 60.8 µM) | MIC (S. aureus Smith; Table 7, Sa-2, read-out: MIC): 25 µg/mL (≈ 60.8 µM) | MIC ([2]; Table 7, Kp-8 (printed Type 22-3028), read-out: MIC): 100 µg/mL (≈ 243 µM) | MIC (K. pneumoniae D11; D11, Table 7, Kp-1, read-out: MIC): 12.5 µg/mL (≈ 30.4 µM) | MIC (Ps. aeruginosa A20896; A20896, Table 7, Pa-24, read-out: MIC): > 100 µg/mL | MIC (E. coli A20895; A20895, Table 7, Ec-62, read-out: MIC): 50 µg/mL (≈ 122 µM)

NC[C@H](O)[C@@H](O[C@H]1O[C@H](CO)[C@@H](O)[C@H](O)[C@H]1O)[C@H](N)[C@H](O)CO [Bu-2183 C]
bio-activity [1]: bio-inactive; also recorded: bioinactive

NC[C@H](O)[C@@H](O[C@H]1O[C@H](CO)[C@@H](N)[C@H](O)[C@H]1O)[C@H](N)[C@H](O)CO [Bu-2183 D]
pKa (Titration in water; read-out: pKa' (first value)): 6.95 | pKa (Titration in water; read-out: pKa' (second value)): 9.68 | solubility in methanol and ethanol (Solubility): slightly soluble | solubility in n-butanol, acetone and other common organic solvents (Solubility): practically insoluble | solubility in water (Solubility): soluble | bio-activity [1]: bio-inactive | bio-activity ([1]; listed as D): bio-inactive; also recorded: bioinactive

NC[C@H]1O[C@H](O[C@H]2[C@H](O)[C@@H](O[C@H]3O[C@H](CO)[C@@H](O)[C@H](N)[C@H]3O)[C@H](N)C[C@@H]2N)[C@H](O)[C@@H](O)[C@@H]1O [Kanamycin A, reference compound]
MIC (E. coli PO 1495; Table 6, Ec-2): 0.4 µg/mL (≈ 0.826 µM) | MIC (Ent. cloacae A21006): 50 µg/mL (≈ 103 µM) | MIC (S. aureus D137; D137): 1.6 µg/mL (≈ 3.3 µM) | MIC (E. coli NIHJ): 0.8 µg/mL (≈ 1.65 µM) | MIC (E. coli A20107; A20107): 25 µg/mL (≈ 51.6 µM) | MIC (Pr. mirabilis A9554; A9554): 0.4 µg/mL (≈ 0.826 µM) | MIC (S. aureus D133; D133): 0.8 µg/mL (≈ 1.65 µM) | MIC (S. aureus A20239; A20239): 25 µg/mL (≈ 51.6 µM) | MIC (Pseudomonas sp. A20621): 12.5 µg/mL (≈ 25.8 µM) | MIC (E. coli JR 66/W677; JR66/W677, Table 6, Ec-53): 25 µg/mL (≈ 51.6 µM) | MIC (S. aureus D193): 0.4 µg/mL (≈ 0.826 µM) | MIC (Pr. morganii A20031): 0.8 µg/mL (≈ 1.65 µM) | MIC (Prov. stuartii A20894): 0.8 µg/mL (≈ 1.65 µM) | MIC (Ps. aeruginosa A20601; A20601): 12.5 µg/mL (≈ 25.8 µM) | MIC (E. coli JR 35/C600): 12.5 µg/mL (≈ 25.8 µM) | MIC (Ps. aeruginosa A9930): 6.3 µg/mL (≈ 13 µM) | MIC (Pr. vulgaris A9436; A9436): 0.2 µg/mL (≈ 0.413 µM) | MIC (E. coli R 5; R5, Table 6, Ec-55): 6.3 µg/mL (≈ 13 µM) | MIC (Ps. aeruginosa A20653; A20653): > 100 µg/mL | MIC (Ps. aeruginosa No. 130): 25 µg/mL (≈ 51.6 µM) | MIC (Ps. aeruginosa GN 315): 100 µg/mL (≈ 206 µM) | MIC (E. coli ML 1630; ML1630): 100 µg/mL (≈ 206 µM) | MIC (Ser. marcescens A21247; A21247): > 100 µg/mL | MIC (E. coli A20732): 12.5 µg/mL (≈ 25.8 µM) | MIC (Ser. marcescens A20019): 0.8 µg/mL (≈ 1.65 µM) | MIC (Ent. cloacae A20364): 100 µg/mL (≈ 206 µM) | MIC (E. coli NR 79/W677; NR79/W677, Table 6, Ec-9): 25 µg/mL (≈ 51.6 µM) | MIC (S. aureus Smith): 0.2 µg/mL (≈ 0.413 µM) | MIC [2]: 100 µg/mL (≈ 206 µM) | MIC (K. pneumoniae D11; D11): 0.2 µg/mL (≈ 0.413 µM) | MIC (Ps. aeruginosa A20896; A20896): > 100 µg/mL | MIC (E. coli A20895; A20895): 0.8 µg/mL (≈ 1.65 µM)

Reference: patent US4012576A, “Antibiotic complex Bu 2183” (priority 1975, dated 1977)
